Where two headings read alike, the source gives them in different places.
Experiments:
Test in all cases: HotSpot kinase profiling
Assay type in all cases: biochemical
P38d/MAPK13 = biological target: T1, P38d/MAPK13 (Homo sapiens, UniProt O15264)
T1 construct: purchased Reaction Biology Corp
T1 sequence (O15264 1-365): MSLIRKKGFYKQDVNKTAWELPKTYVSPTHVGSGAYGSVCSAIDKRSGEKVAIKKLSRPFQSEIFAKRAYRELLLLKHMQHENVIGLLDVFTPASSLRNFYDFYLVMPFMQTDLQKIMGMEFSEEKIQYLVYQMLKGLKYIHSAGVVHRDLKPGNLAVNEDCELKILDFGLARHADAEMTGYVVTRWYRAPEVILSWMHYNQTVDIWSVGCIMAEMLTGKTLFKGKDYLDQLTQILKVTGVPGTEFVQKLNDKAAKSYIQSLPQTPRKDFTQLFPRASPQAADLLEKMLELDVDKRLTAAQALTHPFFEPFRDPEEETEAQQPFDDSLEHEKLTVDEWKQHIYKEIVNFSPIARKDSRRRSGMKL
Method in brief: (§1)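 Radiometric kinase assay with P81 filter capture; each kinase was added to fresh substrate plus cofactors in reaction buffer and incubated 2 h at room temperature. Unreacted phosphate was washed off with 0.1% phosphoric acid before detection; percent inhibition is relative to DMSO control, averaged over replicates.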

RIPK3 = biological target: T2, RIPK3 (Homo sapiens, UniProt Q9Y572)
T2 construct: purchased Reaction Biology Corp
Method in brief: as §1

AXL = biological target: T3, AXL (Homo sapiens, UniProt P30530)
T3 construct: purchased Reaction Biology Corp
T3 sequence (P30530 26-894): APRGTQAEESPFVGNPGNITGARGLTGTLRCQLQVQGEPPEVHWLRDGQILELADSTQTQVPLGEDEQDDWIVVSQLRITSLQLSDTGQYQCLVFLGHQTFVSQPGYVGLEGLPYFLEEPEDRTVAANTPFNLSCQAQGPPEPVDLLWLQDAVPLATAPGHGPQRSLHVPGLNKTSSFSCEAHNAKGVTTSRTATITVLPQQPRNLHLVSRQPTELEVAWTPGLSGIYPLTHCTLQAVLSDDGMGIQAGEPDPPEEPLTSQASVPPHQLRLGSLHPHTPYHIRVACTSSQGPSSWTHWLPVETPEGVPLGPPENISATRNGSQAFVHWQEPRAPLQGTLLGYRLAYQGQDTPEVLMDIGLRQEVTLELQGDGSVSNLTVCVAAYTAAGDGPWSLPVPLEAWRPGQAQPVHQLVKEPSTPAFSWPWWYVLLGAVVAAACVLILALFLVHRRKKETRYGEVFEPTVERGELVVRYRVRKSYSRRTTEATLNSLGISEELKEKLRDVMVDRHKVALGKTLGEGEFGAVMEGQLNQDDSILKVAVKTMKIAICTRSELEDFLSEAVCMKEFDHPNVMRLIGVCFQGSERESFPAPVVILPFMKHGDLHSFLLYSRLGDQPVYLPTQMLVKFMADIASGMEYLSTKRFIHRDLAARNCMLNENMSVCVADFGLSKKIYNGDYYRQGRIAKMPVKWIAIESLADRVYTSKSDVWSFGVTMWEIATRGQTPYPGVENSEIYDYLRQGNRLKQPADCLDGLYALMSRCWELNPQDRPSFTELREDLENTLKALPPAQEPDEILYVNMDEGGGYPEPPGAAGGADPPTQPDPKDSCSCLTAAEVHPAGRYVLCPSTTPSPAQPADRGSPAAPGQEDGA
Method in brief: as §1

MKK6 = biological target: T4, MKK6 (Homo sapiens, UniProt P52564)
T4 construct: purchased Reaction Biology Corp
T4 sequence (P52564 1-334): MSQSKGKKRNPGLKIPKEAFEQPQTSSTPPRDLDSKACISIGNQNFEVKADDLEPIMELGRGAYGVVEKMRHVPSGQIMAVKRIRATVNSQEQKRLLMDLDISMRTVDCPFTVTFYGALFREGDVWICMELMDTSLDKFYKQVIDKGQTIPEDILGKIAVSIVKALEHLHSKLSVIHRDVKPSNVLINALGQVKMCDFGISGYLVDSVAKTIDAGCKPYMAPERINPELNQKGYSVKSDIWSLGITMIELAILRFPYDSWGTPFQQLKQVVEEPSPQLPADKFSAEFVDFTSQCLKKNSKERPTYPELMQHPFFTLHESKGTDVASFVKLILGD
Method in brief: as §1

DMPK2 = biological target: T5, DMPK2 (Homo sapiens, UniProt Q6DT37)
T5 construct: purchased Reaction Biology Corp
Method in brief: as §1

LRRK2 = biological target: T6, LRRK2 (Homo sapiens, UniProt Q5S007)
T6 construct: purchased Reaction Biology Corp
Method in brief: as §1

AKT3 = biological target: T7, AKT3 (Homo sapiens, UniProt Q9Y243)
T7 construct: purchased Reaction Biology Corp
Method in brief: as §1

GRK6 = biological target: T8, GRK6 (Homo sapiens, UniProt P43250)
T8 construct: purchased Reaction Biology Corp
Method in brief: as §1

[1] = read-out: % Enzyme Activity (relative to DMSO controls) Run 1
[2] = read-out: % Enzyme Activity (relative to DMSO controls) Run 2

T2 sequence (Q9Y572 whole entry): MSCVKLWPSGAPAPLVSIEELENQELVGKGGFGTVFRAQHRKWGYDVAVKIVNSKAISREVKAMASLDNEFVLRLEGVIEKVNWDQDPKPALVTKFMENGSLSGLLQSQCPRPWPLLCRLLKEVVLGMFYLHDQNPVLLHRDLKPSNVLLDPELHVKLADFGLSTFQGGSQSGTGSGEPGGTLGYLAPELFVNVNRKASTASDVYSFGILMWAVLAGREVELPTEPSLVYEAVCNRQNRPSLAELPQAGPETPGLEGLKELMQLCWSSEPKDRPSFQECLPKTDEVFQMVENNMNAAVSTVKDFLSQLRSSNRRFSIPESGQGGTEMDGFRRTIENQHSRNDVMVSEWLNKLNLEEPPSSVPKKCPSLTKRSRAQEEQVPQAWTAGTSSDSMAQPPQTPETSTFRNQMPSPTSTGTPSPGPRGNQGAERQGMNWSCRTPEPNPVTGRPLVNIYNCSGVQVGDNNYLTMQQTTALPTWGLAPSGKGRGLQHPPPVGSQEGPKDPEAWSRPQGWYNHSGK
T5 sequence (Q6DT37 whole entry): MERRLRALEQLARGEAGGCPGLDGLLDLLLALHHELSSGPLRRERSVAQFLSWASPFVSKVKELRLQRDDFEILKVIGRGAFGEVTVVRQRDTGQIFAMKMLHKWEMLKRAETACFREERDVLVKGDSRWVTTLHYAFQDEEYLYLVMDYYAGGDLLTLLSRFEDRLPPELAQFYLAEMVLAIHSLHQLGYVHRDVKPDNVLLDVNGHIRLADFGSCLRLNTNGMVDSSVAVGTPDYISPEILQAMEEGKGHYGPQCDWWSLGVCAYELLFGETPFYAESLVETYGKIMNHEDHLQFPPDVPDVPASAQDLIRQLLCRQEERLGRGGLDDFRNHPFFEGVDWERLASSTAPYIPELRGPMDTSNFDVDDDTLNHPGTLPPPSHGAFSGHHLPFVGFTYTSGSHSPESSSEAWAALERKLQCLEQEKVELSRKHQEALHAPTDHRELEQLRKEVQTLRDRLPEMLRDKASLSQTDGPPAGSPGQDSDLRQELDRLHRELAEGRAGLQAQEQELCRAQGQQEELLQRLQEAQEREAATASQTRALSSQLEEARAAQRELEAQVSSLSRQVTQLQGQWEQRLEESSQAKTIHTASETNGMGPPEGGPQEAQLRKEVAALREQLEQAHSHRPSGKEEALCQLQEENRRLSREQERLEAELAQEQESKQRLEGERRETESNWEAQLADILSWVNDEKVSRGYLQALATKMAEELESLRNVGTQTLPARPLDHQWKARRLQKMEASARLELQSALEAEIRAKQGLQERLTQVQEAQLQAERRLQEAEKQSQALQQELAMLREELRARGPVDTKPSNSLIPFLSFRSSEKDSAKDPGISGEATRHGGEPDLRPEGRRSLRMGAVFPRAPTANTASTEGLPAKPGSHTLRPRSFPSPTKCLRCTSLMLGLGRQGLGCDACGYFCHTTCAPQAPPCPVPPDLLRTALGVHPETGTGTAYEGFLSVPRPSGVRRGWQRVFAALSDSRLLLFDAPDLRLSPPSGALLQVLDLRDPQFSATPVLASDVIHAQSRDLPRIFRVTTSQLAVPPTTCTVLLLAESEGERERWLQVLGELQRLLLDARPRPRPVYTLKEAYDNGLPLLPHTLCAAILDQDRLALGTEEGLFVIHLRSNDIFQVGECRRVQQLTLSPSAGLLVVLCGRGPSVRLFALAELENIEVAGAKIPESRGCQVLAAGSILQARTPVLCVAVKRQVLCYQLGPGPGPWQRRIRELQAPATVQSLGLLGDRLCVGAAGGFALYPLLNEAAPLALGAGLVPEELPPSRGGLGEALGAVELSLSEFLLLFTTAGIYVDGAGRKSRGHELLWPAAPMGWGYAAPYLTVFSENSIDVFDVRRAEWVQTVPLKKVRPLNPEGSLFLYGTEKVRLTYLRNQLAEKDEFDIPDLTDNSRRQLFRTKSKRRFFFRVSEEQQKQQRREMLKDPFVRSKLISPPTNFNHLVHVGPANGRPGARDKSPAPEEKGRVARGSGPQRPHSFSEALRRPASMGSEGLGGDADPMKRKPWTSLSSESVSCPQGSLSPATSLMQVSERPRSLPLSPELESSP
T7 sequence (Q9Y243 whole entry): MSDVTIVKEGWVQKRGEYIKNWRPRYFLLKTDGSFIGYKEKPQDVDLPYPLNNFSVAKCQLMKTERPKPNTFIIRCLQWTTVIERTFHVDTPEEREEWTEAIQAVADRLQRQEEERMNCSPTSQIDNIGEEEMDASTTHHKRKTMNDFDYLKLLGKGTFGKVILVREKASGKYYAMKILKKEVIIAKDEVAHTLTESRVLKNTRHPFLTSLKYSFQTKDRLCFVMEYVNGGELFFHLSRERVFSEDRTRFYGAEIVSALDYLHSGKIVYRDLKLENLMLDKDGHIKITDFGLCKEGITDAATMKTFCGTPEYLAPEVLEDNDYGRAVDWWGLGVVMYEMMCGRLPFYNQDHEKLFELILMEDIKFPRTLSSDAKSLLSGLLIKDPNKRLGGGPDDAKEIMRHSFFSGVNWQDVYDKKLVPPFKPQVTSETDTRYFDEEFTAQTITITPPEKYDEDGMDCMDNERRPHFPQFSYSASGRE
T6 sequence (Q5S007 whole entry): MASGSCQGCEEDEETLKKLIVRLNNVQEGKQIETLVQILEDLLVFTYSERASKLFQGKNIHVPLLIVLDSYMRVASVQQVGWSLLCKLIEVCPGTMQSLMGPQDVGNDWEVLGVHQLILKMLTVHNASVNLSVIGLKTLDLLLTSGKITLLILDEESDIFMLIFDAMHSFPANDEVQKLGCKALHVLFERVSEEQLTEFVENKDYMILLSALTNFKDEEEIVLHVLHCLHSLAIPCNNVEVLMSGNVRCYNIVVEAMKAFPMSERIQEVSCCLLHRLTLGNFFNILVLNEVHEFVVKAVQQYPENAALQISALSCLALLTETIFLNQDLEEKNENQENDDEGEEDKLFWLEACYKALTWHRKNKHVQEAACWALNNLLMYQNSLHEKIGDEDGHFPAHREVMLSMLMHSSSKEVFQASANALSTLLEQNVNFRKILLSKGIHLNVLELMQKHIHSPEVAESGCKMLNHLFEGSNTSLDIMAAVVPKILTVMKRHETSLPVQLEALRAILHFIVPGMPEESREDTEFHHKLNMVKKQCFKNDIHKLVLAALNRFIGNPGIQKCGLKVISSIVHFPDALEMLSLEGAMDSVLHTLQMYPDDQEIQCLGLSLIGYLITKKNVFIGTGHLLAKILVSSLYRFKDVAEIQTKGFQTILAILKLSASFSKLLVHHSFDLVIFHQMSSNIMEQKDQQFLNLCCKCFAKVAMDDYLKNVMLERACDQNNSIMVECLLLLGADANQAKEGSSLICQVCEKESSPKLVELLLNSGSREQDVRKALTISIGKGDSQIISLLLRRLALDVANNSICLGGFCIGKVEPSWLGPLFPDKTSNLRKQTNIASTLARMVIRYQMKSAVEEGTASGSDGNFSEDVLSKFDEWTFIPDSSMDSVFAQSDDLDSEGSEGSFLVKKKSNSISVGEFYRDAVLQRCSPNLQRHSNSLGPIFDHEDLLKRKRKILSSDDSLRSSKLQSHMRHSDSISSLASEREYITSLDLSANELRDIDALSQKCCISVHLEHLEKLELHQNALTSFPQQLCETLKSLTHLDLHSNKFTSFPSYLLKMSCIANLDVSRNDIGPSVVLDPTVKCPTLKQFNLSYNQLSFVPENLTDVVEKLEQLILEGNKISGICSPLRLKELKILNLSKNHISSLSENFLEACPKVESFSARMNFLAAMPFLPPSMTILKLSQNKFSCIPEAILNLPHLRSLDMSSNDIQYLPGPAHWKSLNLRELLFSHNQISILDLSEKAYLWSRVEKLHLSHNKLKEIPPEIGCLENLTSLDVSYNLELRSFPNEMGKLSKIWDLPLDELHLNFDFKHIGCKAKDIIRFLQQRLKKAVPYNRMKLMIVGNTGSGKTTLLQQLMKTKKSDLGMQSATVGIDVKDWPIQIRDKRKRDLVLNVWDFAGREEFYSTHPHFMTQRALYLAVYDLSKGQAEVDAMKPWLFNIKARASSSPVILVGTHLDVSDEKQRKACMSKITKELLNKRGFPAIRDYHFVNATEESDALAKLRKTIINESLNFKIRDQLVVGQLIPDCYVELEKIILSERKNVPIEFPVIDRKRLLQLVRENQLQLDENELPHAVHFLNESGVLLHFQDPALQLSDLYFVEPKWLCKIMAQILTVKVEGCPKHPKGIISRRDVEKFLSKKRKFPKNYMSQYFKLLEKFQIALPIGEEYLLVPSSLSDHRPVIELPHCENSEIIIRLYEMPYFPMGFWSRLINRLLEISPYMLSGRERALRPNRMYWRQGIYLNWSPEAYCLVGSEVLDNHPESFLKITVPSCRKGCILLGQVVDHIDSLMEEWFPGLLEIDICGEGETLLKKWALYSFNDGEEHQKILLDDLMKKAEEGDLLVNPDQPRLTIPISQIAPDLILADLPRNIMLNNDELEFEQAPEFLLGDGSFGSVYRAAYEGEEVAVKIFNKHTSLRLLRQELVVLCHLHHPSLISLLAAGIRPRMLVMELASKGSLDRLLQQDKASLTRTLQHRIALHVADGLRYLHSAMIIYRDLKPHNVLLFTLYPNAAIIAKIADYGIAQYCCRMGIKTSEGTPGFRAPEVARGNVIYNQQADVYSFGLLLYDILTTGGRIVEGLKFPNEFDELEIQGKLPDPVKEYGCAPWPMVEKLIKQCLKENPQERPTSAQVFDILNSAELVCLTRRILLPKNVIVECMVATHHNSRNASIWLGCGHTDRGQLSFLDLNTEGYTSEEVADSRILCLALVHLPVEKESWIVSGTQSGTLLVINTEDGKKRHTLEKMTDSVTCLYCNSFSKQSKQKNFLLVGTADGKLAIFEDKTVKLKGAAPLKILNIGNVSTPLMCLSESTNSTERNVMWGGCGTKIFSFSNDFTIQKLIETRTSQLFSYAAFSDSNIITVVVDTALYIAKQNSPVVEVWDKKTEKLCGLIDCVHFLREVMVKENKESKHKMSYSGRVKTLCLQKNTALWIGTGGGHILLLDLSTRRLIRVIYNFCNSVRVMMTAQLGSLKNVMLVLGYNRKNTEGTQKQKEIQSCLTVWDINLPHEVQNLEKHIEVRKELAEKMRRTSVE

C=CC(=O)Nc1cccc(Nc2nc(Nc3ccc(OCCOC)c(F)c3)ncc2F)c1 [Compound 2]
inhibition at 3 µM (P38d/MAPK13): 0.64%
remaining activity at 3 µM (P38d/MAPK13; [1]): 98.9%
remaining activity at 3 µM (P38d/MAPK13; [2]): 99.8%
inhibition at 3 µM (RIPK3): -18.8%
remaining activity at 3 µM (RIPK3; [1]): 117%
remaining activity at 3 µM (RIPK3; [2]): 121%
inhibition at 3 µM (AXL): 51.3%
remaining activity at 3 µM (AXL; [1]): 48.6%
remaining activity at 3 µM (AXL; [2]): 48.8%
inhibition at 3 µM (MKK6): 3.11%
remaining activity at 3 µM (MKK6; [1]): 96.4%
remaining activity at 3 µM (MKK6; [2]): 97.4%
inhibition at 3 µM (DMPK2): 1.54%
remaining activity at 3 µM (DMPK2; [1]): 97.4%
remaining activity at 3 µM (DMPK2; [2]): 99.6%
inhibition at 3 µM (LRRK2): 65.9%
remaining activity at 3 µM (LRRK2; [1]): 33%
remaining activity at 3 µM (LRRK2; [2]): 35.1%
inhibition at 3 µM (AKT3): -6.85%
remaining activity at 3 µM (AKT3; [1]): 111%
remaining activity at 3 µM (AKT3; [2]): 103%
inhibition at 3 µM (GRK6): -3.03%
remaining activity at 3 µM (GRK6; [1]): 102%
remaining activity at 3 µM (GRK6; [2]): 104%

— patent US9492471B2, “Methods of treating a disease or disorder associated with Bruton'S Tyrosine Kinase” (Celgene Avilomics Research, Inc., priority 2013, dated 2016)
